Experimental data as given in US11674967B2, “Method of identifying potential inhibitors of APO TNFα trimers” (UCB BIOPHARMA SRL, priority 2015, dated 2023).

target: T1, human TNFα trimer (Homo sapiens, UniProt P01375); assay: RMSD of crystal structure of compound-bound TNFα trimer to Reference Structure Compound 34; details: Cα atoms of β-sheet residues, all three subunits, PyMOL
T1 construct: His6Smt-tag (N, cleaved yes); made in house; host or cells: E. coli (vector pEMB54)
Method: Cells were pre-cultured at 37° C. in rich media, induced with the addition of 0.1% arabinose and allowed to express overnight at 25° C. in vector pEMB54. This vector introduces a cleavable N-terminal His6Smt-tag. The cells were lysed and purified by Ni-NTA chelate chromatography. The fusion protein was eluted with buffer containing imidazole and cleaved by the addition of protease. The final cleaved TNFα protein was purified by a subtractive Ni chelate chromatography step to remove the fusion tag and further purified by size exclusion chromatography to remove the remaining impurities. The final TNFα product was typically concentrated to 20.0 mg/ml and flash frozen in liquid nitrogen.
Purified human TNF[…] (20.0 mg/ml, VC 2043) was diluted to 4-7 mg/ml in 10 mM HEPES pH 7.5, 150 mM NaCl buffer followed by overnight incubation at 4° C. with 0.3-0.5 mM compound (1-2 molar excess). The TNF[…] compound complexes were crystallized by sitting drop vapor diffusion by mixing 0.5 μl of complex with 0.5 μl of 21.44% PEG 3350, 100 mM Tris, pH 9.0 (UCB1474433); or 22.0% PEG 3350, 100 mM glycine, 100 mM Tris, pH 8.5 (UCB1480595); or 25.6% PEG 3350, 100 mM Tris, pH 8.3, 3% xylitol (UCB5143079) or other formulation with varying precipitant concentration or additives over 100 μl of the same crystallization solution. Other formulations for other compounds include a range of PEG 3350 of 8-28%. Other PEG-like additives include PEG 1000 (8-18%) or PEG 2000 (10-13%). Other additives include MPD (5-13%) or 200 mM NaCl. Other buffers include 100 mM Hepes (pH 7-8), 100 mM Tris or bis-Tris (pH 6.7-9.0). Other non-PEG 3350 crystallization solutions consist of PEG 2000 (14-19%), 100 mM Hepes, pH 8, 25 mM arginine; or 17% PEG 10000, 200 mM ammonium acetate, 100 mM bis-Tris, pH 5.5; or 30% PEG 2000 MME, 100 mM sodium acetate, 100 mM Mes, pH 6.5.
Crystals were briefly soaked in ethylene glycol and/or vitrified directly in liquid nitrogen for data collection.
X-ray diffraction data were collected from a synchrotron source at a wavelength, most frequently, of 0.976484 Å and recorded on CCD detector. […] The structure of the human TNF[…] (VC 2043) complexed with compound was solved by molecular replacement using Phaser with input model of 1TNF. […] Iterative manual model building using Coot (Emsley and Cowtan, 2004) and Refmac (Murshudov et al., 1997) continued until R and Rfree converged. […] The resolution of the structures was most frequently around 2.15 Å.
Root mean squared deviation (RMSD) calculations were carried out to ascertain the distance of each of the crystal structures of distorted TNFα trimer to a reference structure.
RMSD calculations were done using the program PyMOL (www.pymol.org). In this example version 1.7. was used. The cmd.rms PyMOL command was used with defined pairs of atoms. The atoms used were the backbone Ca's of certain residues within the β-strands of TNFα. The residue numbers used are shown below:
These residue numbers are those within the published structure of TNFα with PDB code 1A8M and within the distorted TNFα trimer structures of this invention. The residue numbers are also according to the sequence of SEQ ID NO:36. The residues in each of the three chains with the TNFα structures, (labelled A, B, and C according to our instructions) were used.
The command cmd.rms was used with the following arguments:
rms=cmd.rms(“(moving)”, “(target)”, matchmaker=4, quiet=0, cycles=0)
where “(moving)” is the selection of atoms in a given TNFα structure and “(target)” is the selection of equivalent atoms within the reference structure.
The RMSD was calculated for each structure against all others. The “representative structure” or “Reference Structure” was chosen to be the one with the lowest sum RMSD to all others—the structure “Compound 34” or “Compound34.pdb”.
Reference Structure (Compound 34) and Query Structure (Compound 64) were overlaid (see FIG. 17 with Reference Structure emboldened) by: • 1. […]

T1 sequence (P01375 with tags, fused parts or gaps): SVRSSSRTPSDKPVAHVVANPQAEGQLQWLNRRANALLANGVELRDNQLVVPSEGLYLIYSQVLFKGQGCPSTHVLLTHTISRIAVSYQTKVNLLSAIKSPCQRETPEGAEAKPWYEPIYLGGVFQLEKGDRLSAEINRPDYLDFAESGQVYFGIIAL

| RMSD (Å) with Compound 34 [Å] | Structure (SMILES) |
| --- | --- |
| 0.21 | Cc1ccc(C)c(Cn2c(C(O)c3ccc(N(C)C)cc3)nc3ccccc32)c1 (stereo not drawn) [Compound 4] |
| 0.21 | Cc1ccc(C)c(Cn2c(Cn3cc(-c4cccc(O)c4)nn3)nc3ccccc32)c1 [Compound 6] |
| 0.25 | Cc1ccc(C)c(Cn2c(COCc3ccncc3)nc3ccccc32)c1 [Compound 7] |
| 0.30 | Clc1ccc(Cl)c(Cn2c(Cc3ccncc3)nc3ccccc32)c1 [Compound 8] |
| 0.28 | Cc1ccc(C)c(Nn2c(C(O)c3ccncc3)nc3ccccc32)c1 (stereo not drawn) [Compound 9] |
| 0.25 | Cc1ccc(C)c(Cn2c(C(N)c3ccccc3)nc3ccccc32)c1 (stereo not drawn) [Compound 10] |
| 0.30 | Cc1ccc(C)c(Cn2c(C(O)c3ccncc3)nc3cc(-c4ccc(N5CCNCC5)cc4)ccc32)c1 (stereo not drawn) [Compound 11] |
| 0.27 | Cc1ccc(C)c(Cn2c(C(O)c3ccncc3)nc3ccc(-c4cn[nH]c4)cc32)c1 (stereo not drawn) [Compound 12] |
| 0.36 | COC(=O)CCc1ccc2nc(C(O)c3ccncc3)n(Cc3cc(C)ccc3C)c2c1 (stereo not drawn) [Compound 13] |
| 0.30 | Cc1ccc(C)c(Cn2c(CO)nc3ccc(-c4ccc(N(C)C)nc4)cc32)c1 [Compound 14] |
| 0.47 | Cc1ccc(C)c(Cn2c(COc3ccc4ccncc4c3)nc3ccccc32)c1 [Compound 16] |
| 0.44 | Cc1ccc(C)c(Cn2c(COCc3ccccc3[N+](=O)[O-])nc3ccccc32)c1 [Compound 17] |
| 0.31 | Cc1ccc(C)c(Cn2c(Cc3ccncc3)nc3ccc(-c4ccncc4)cc32)c1 [Compound 18] |
| 0.21 | Cc1ccc(C)c(Cn2c(Cc3ccncc3)nc3ccc(-c4ccc(CN5CCCC5)cc4)cc32)c1 [Compound 19] |
| 0.22 | CNC(=O)c1ccc(OCc2nc3ccc(-c4ccncc4)cc3n2Cc2cc(Cl)ccc2Cl)cc1 [Compound 20] |
| 0.22 | NC(=O)c1ccc(OCc2nc3ccc(-c4cc[n+]([O-])cc4)cc3n2Cc2cc(Cl)ccc2Cl)cc1 [Compound 21] |
| 0.23 | Cc1nc(Cn2c(COc3ccc(C(N)=O)cc3)nc3ccc(-c4cc[n+]([O-])cc4)cc32)cs1 [Compound 22] |
| 0.24 | Cc1nc(Cn2c(COc3ccc(C(N)=O)cc3)nc3ccc(-c4ccncn4)cc32)cs1 [Compound 23] |
| 0.38 | Cc1nc2cnc(-c3ccc(=O)[nH]c3)cn2c1Cc1cc(Cl)ccc1Cl [Compound 26] |
| 0.24 | N#Cc1ccc2nc(COc3ccc(C(N)=O)nc3)n(Cc3ccccc3OC(F)F)c2c1 [Compound 27] |
| 0.29 | CS(=O)(=O)c1cccc(OCc2nc3ccc(C#N)cc3n2Cc2cc(Cl)ccc2Cl)c1 [Compound 28] |
| 0.24 | N#Cc1ccc2nc(COc3cccc(N4CCCC4=O)c3)n(Cc3cc(Cl)ccc3Cl)c2c1 [Compound 29] |
| 0.23 | N#Cc1ccc2nc(Cc3ccc(NC(N)=O)cc3)n(Cc3ccccc3OC(F)F)c2c1 [Compound 30] |
| 0.24 | N#Cc1ccc2nc(Cc3csc(N4CCNC4=O)n3)n(Cc3ccccc3OC(F)F)c2c1 [Compound 31] |
| 0.24 | Cc1nc2ccc(-c3ccc(N4CCNCC4)nc3)cc2n1Cc1ccccc1OC(F)F [Compound 32] |

| RMSD (Å) with Compound 34 [Å] | Structure (SMILES) |
| --- | --- |
| 0.14 | COCc1nc2ccc(-c3ccc(N4CCN(C(C)=O)CC4)nc3)cc2n1Cc1ccccc1OC(F)F [Compound 33] |
| 0.16 | N#Cc1ccc2nc(COc3cccc(N4CCC(O)C4=O)c3)n(Cc3ccccc3OC(F)F)c2c1 (stereo not drawn) [Compound 35] |
| 0.21 | N#Cc1ccc2nc(COc3cccc(N4CC(O)CC4=O)c3)n(Cc3ccccc3OC(F)F)c2c1 (stereo not drawn) [Compound 36] |
| 0.22 | N#Cc1ccc2nc(COc3cccc(N4CC(O)CC4=O)c3)n(Cc3ccccc3OC(F)F)c2c1 (stereo not drawn) [Compound 37] |
| 0.17 | COCc1nc2ccc(-c3ccc(N4CCNC(=O)C4)nc3)cc2n1Cc1ccccc1OC(F)F [Compound 38] |
| 0.17 | N#Cc1ccc2nc(Cn3nnc(N4CCOCC4)n3)n(Cc3ccccc3OC(F)F)c2c1 [Compound 40] |
| 0.20 | Cc1cc(OCc2nc3ccc(C#N)cc3n2C(C)c2ccccc2)no1 (stereo not drawn) [Compound 41] |
| 0.21 | CC(c1ccccc1)n1c(COc2cccc(N3CCCC3=O)c2)nc2ccc(C#N)cc21 (stereo not drawn) [Compound 42] |
| 0.25 | COCCNc1ncc(-c2ccc3nc(C)n(Cc4ccccc4OC(F)F)c3c2)cn1 [Compound 44] |
| 0.24 | COc1ccc(-c2ccc3nc(Cc4ccc(S(C)(=O)=O)cc4)n(C(C)c4ccccc4)c3c2)cn1 (stereo not drawn) [Compound 45] |
| 0.27 | Cc1nc2ccc(-c3cnc(N4CCC(C(=O)O)CC4)nc3)cn2c1Cc1ccccc1OC(F)F [Compound 46] |
| 0.26 | Cc1nc2ccc(-c3ccc(N4CCNCC4)nc3)cn2c1C(O)c1ccccc1OC(F)F (stereo not drawn) [Compound 47] |
| 0.30 | COc1ccc(-c2ccc3nc4c(n3c2)C(c2ccccc2)OCC4)cn1 (stereo not drawn) [Compound 48] |
| 0.28 | Cc1ccc(C)c(C2CCc3nc4ccc(Br)cc4n32)c1 (stereo not drawn) [Compound 49] |
| 0.23 | CC(c1ccccc1OC(F)F)n1c(COc2cccc(N3CCCC3=O)c2)nc2ccc(Br)cc21 (stereo not drawn) [Compound 50] |
| 0.34 | FC(F)Oc1ccccc1C1NCCc2nc3ccc(-c4cnc(N5CCOCC5)nc4)cn3c21 (stereo not drawn) [Compound 51] |
| 0.26 | FC(F)Oc1ccccc1C1CCc2nc3ccc(Br)cc3n21 (stereo not drawn) [Compound 52] |
| 0.24 | CC(c1ccccc1OC(F)F)n1c(COc2cccc(N3CCCC3=O)c2)nc2ccc(Br)cc21 (stereo not drawn) [Compound 53] |
| 0.32 | Cc1cc2nc(C)c(Cc3ccccc3OC(F)F)n2cc1-c1cnc(NCC2(C(=O)O)CC2)nc1 [Compound 54] |
| 0.26 | Cc1nc2ccc(-c3cnc(N4CCNC(=O)CC4C)nc3)cn2c1Cc1ccccc1OC(F)F (stereo not drawn) [Compound 55] |
| 0.24 | Cc1nc2ccc(-c3cnc(N4CCNC(=O)C4)nc3)cn2c1[C@@H](O)c1ccccc1OC(F)F [Compound 56] |
| 0.30 | Cc1nc2ccc(-c3cnc(N4CCNC(=O)CC4)nc3)cn2c1C(C)c1ccccc1OC(F)F (stereo not drawn) [Compound 57] |
| 0.28 | CS(=O)(=O)c1ccc(-c2ccc3nc4n(c3c2)C(c2ccccc2OC(F)F)CC4)cc1 (stereo not drawn) [Compound 61] |
| 0.16 | CS(=O)(=O)c1ccc(Cc2nc3ccc(-c4ccc(S(C)(=O)=O)cc4)cc3n2Cc2ccccc2OC(F)F)cc1 [Compound 62] |

| Structure (SMILES) | RMSD (Å) with Compound 34 [Å] |
| --- | --- |
| Cc1nc2ccc(-c3cnn(C)c3)cn2c1Cc1cc(Cl)ccc1Cl [Compound 24] | 0.28 |
| COc1ccc(OCc2nc3ccc(Br)cc3n2Cc2nc(C)sc2Cl)cn1 [Compound 25] | 0.34 |
